# Measurements as given in patent US9145391B2, “Bipyridylaminopyridines as Syk inhibitors” (Merck Sharp & Dohme Corp., priority 2011, dated 2015).
# Biological target: recombinant human GST-Syk (Homo sapiens (Human), UniProt P43405)
# Assay: Homogeneous Time-Resolved Fluorescence (HTRF) assay for the recombinant human Syk enzyme
# Assay type: biochemical
# Settings: recombinant human GST-Syk 5 pM, ATP 25 μM, read-out: rhSyk IC50
# Description: Syk inhibition may be determined using the following assay protocol: Homogeneous Time-Resolved Fluorescence (HTRF) Assay for the Recombinant Human Syk Enzyme: A recombinant GST-hSyk fusion protein was used to measure potency of compounds to inhibit human Syk activity. […] To initiate the reaction the biotinylated substrate peptide (250 nM final concentration) that contains the phosphorylation site for Syk was added with magnesium (5 mM final concentration) and ATP (25 μM final concentration). […] Final volume of the quenching solution was 10 μL.
row,Compound,IC50 [nM]
1,COc1ccccc1C(=O)N1CCC(Nc2ccc(-c3cc(C)cc(Nc4cc(C(F)(F)F)ccn4)n3)cn2)CC1 [Example 4-87],6
2,Cc1cc(Nc2cc(C(F)(F)F)ccn2)nc(-c2ccc(NC3CCN(C(=O)c4cc(-n5cccn5)ccc4Cl)CC3)nc2)c1 [Example 4-48],30
3,Cc1cc(Nc2cc(C(F)(F)F)ccn2)nc(-c2ccc(C(O)(C3CCC(C(=O)O)CC3)C3CC3)nc2)c1 (stereo not drawn) [Example 1-31],< 0.5
4,"Cc1cc(Nc2cc(C(F)F)ccn2)nc(-c2ccc(C(C)(O)[C@H]3CC[C@H](C(=O)OC(C)OC(=O)OC4CCCCC4)CC3)nc2)c1 (single isomer, unassigned) [Example 20-9, 1-{[(cyclohexyloxy)carbonyl]oxy}ethyl trans-4-[(1R or 1S)-1-(6-{[4-(difluoromethyl)pyridin-2-yl]amino}-4-methyl-2,3′-bipyridin-6′-yl)-1-hydroxyethyl] cyclohexanecarboxylate]",140
5,"Cc1cc(Nc2cc(C(F)F)ccn2)nc(-c2ccc(C(C)(O)[C@H]3CC[C@H](C(=O)OCc4ccccc4)CC3)nc2)c1 (single isomer, unassigned) [Example 19-1, benzyl trans-4-[(1R or 1S)-1-(6-{[4-(difluoromethyl)pyridin-2-yl]amino}-4-methyl-2,3′-bipyridin-6′-yl)-1-hydroxyethyl] cyclohexanecarboxylate]",35
6,Cc1cc(Nc2cc(C(F)(F)F)ccn2)nc(-c2ccc(N3CCC3C(=O)O)nc2)c1 (stereo not drawn) [Example 2-18],33
7,COc1cccc(CC(=O)N2CCC(Nc3ccc(-c4cc(C)cc(Nc5cc(C(F)(F)F)ccn5)n4)cn3)CC2)c1 [Example 4-110],6
8,"Cc1cc(Nc2cc(C(F)F)ccn2)nc(-c2ccc(C(C)(O)[C@H]3CC[C@H](C(=O)OC(C)OC(=O)C(C)C)CC3)nc2)c1 (single isomer, unassigned) [Example 21-4, 1-[(2-methylpropanoyl)oxy]ethyl trans-4-[(1R or 1S)-1-(6-{[4-(difluoromethyl)pyridin-2-yl]amino}-4-methyl-2,3′-bipyridin-6′-yl)-1-hydroxyethyl] cyclohexanecarboxylate]",23
9,"Cc1cc(Nc2cc(C(F)F)ccn2)nc(-c2ccc(C(C)(O)[C@H]3CC[C@H](C(=O)OC(C)OC(=O)OC(C)C)CC3)nc2)c1 (single isomer, unassigned) [Example 20-7, 1-{[(propan-2-yloxy)carbonyl]oxy}ethyl trans-4-[(1R or 1S)-1-{6-{[4-(difluoromethyl)pyridin-2-yl]amino}-4-methyl-2,3′-bipyridin-6′-yl)-1-hydroxyethyl] cyclohexanecarboxylate]",100
10,CC(O)(c1ccc(-c2cc(C3CC3)cc(Nc3cc(C(F)F)ccn3)n2)cn1)C1CCC(C(=O)O)CC1 (stereo not drawn) [Example 1-33],< 0.5
11,"Cc1cc(Nc2cc(C(F)F)ccn2)nc(-c2ccc(C(C)(O)[C@H]3CC[C@H](C(=O)OC(C)OC(=O)OC(C)C)CC3)nc2)c1 (single isomer, unassigned) [Example 20-3, 1-{[(propan-2-yloxy)carbonyl]oxy}ethyl trans-4-[(1R or 1S)-1-(6-{[4-(difluoromethyl)pyridin-2-yl]amino}-4-methyl-2,3′-bipyridin-6′-yl)-1-hydroxyethyl] cyclohexanecarboxylate]",110
12,CC(=O)Nc1cccc(C(=O)N2CCC(Nc3ccc(-c4cc(C)cc(Nc5cc(C(F)(F)F)ccn5)n4)cn3)CC2)c1 [Example 4-58],4
13,Cc1cc(Nc2cc(C(F)(F)F)ccn2)nc(-c2ccc(NC3CCN(C(=O)CCc4nc5ccccc5s4)CC3)nc2)c1 [Example 4-121],5
14,"Nc1cc(Nc2cc(C(F)(F)F)ccn2)nc(-c2ccc(NC3CCNC3=O)nc2)c1 (stereo not drawn) [Example 2, 3-[(4-Amino-6-{[4-(trifluoromethyl)pyridin-2-yl]amino}-2,3′-bipyridin-6′-yl)amino]pyrrolidin-2-one]",4
15,Cc1cc(Nc2cc(C(F)(F)F)ccn2)nc(-c2ccc(C3(O)CCN(C(=O)c4cc(-c5ccncc5)[nH]n4)CC3)nc2)c1 [Example 9-6],12
16,Cc1cc(Nc2cc(C(F)(F)F)ccn2)nc(-c2ccc(NC3CCN(C(=O)c4ccc5ncccc5c4)CC3)nc2)c1 [Example 4-111],3
17,Cc1cc(Nc2cc(C(F)(F)F)ccn2)nc(-c2ccc(N3CCC(NC(=O)OC(C)(C)C)C3)nc2)c1 (stereo not drawn) [Example 2-3],248
18,CCC(O)(c1ccc(-c2cc(C)cc(Nc3cc(C(F)(F)F)ccn3)n2)cn1)C1CCC(C(=O)OC)CC1 (stereo not drawn) [Example 1-16],12
19,Cc1cc(Nc2cc(C(F)(F)F)ccn2)nc(-c2ccc(NC3CCNC3=O)nc2)c1 (stereo not drawn) [Example 2-9],4
20,Cc1cc(Nc2cc(C(F)(F)F)ccn2)nc(-c2ccc(NC3CCN(C(=O)Cc4cccc5ncccc45)CC3)nc2)c1 [Example 4-12],4
21,Cc1cc(Nc2cc(C(F)(F)F)ccn2)nc(-c2ccc(NC3CCN(C(=O)c4ccc5cc[nH]c5c4)CC3)nc2)c1 [Example 4-15],7
22,Cc1cc(Nc2cc(C(F)(F)F)ccn2)nc(-c2ccc(NC3CCN(C(=O)c4cccc(N(C)C)c4)CC3)nc2)c1 [Example 4-42],4
23,COc1ccc2cc(C(C)C(=O)N3CCC(Nc4ccc(-c5cc(C)cc(Nc6cc(C(F)(F)F)ccn6)n5)cn4)CC3)ccc2c1 (stereo not drawn) [Example 4-55],223
24,Cc1cc(Nc2cc(C(F)(F)F)ccn2)nc(-c2ccc(NC3CCN(C(=O)c4cccc(-n5cccn5)c4)CC3)nc2)c1 [Example 4-36],10

row,Compound,IC50 [nM]
1,"Cc1cc(Nc2cc(C(F)(F)F)ccn2)nc(-c2ccc(NC3CCC(C(=O)O)C(C)C3)nc2)c1 (single isomer, unassigned) [Example 3-3]",1
2,Cc1cc(Nc2cc(C(F)(F)F)ccn2)nc(-c2ccc(NC3CCN(C(=O)c4ccccc4C#N)CC3)nc2)c1 [Example 4-112],6
3,"Cc1cc(Nc2cc(C(F)(F)F)ccn2)nc(-c2ccc(NC3CCN(C(N)=O)CC3)nc2)c1 [Example 7, 4-(4-Methyl-6-(4-(trifluoromethyl)pyridin-2-ylamino)-2,3′-bipyridin-6′-ylamino)piperidine-1-carboxamide]",4
4,Cc1cc(Nc2cc(C(F)(F)F)ccn2)nc(-c2ccc(NC3CCN(C(=O)Cc4ccc(Cl)cc4)CC3)nc2)c1 [Example 4-73],21
5,"Cc1cc(Nc2cc(C(F)(F)F)ccn2)nc(-c2ccc(OC[C@H]3CC[C@H](C(=O)O)CC3)nc2)c1 [Example 3, trans-4-{[(4-Methyl-6-{[4-(trifluoromethyl)pyridin-2-yl]amino}-2,3′-bipyridin-6′-yl)oxy]methyl}cyclohexanecarboxylic acid]",3
6,Cc1ccnc(Nc2cc(C)cc(-c3ccc(F)nc3)n2)c1 [Example 1-2],111
7,Cc1cc(Nc2cc(C(F)(F)F)ccn2)nc(-c2ccc(NC3CCN(C(=O)c4cccc5c4oc4ccccc45)CC3)nc2)c1 [Example 4-67],178
8,Cc1cc(Nc2cc(C(F)(F)F)ccn2)nc(-c2ccc(C3(O)CCC(C(=O)O)CC3)nc2)c1 (stereo not drawn) [Example 1-18],1
9,Cc1ccnc(Nc2cc(C)cc(-c3ccnc(F)c3)n2)c1 [Example 1-3],135
10,"Cc1cc(Nc2cc(C(F)(F)F)ccn2)nc(-c2ccc(NC3CCC(C(=O)O)C(C)C3)nc2)c1 (single isomer, unassigned) [Example 3-2]",< 0.5
11,Cc1cc(Nc2cc(C(F)(F)F)ccn2)nc(-c2ccc(NC3CCN(C(=O)c4ccccn4)CC3)nc2)c1 [Example 4-104],2
12,COC(=O)C1CCC(C(O)(c2ccc(-c3cc(C)cc(Nc4cc(C(F)(F)F)ccn4)n3)cn2)C2CC2)CC1 (stereo not drawn) [Example 1-17],16
13,Cc1cc(Nc2cc(C(F)(F)F)ccn2)nc(-c2ccc(NC3CCN(C(=O)c4ccc(C#N)cc4)CC3)nc2)c1 [Example 4-90],4
14,Cc1cc(Nc2cc(C(F)(F)F)ccn2)nc(-c2ccc(NC3CCN(C(=O)Cc4n[nH]c5ccccc45)CC3)nc2)c1 [Example 4-8],7
15,Cc1cc(Nc2cc(C(F)(F)F)ccn2)nc(-c2ccc(NC3CCN(C(=O)c4cn(C)c5ccccc45)CC3)nc2)c1 [Example 4-99],11
16,Cc1cc(Nc2cc(C(F)(F)F)ccn2)nc(-c2ccc(NC3CCN(C(=O)c4cnc5ccccc5c4)CC3)nc2)c1 [Example 4-92],4
17,"COC(=O)[C@H]1CC[C@H](C(C)(O)c2ccc(-c3cc(C)cc(Nc4cc(C(F)F)ccn4)n3)cn2)CC1 (single isomer, unassigned) [Example 11, Methyl trans-4-[(1R or 1S)-(6-{[4-(difluoromethyl)pyridin-2-yl]amino}-4-methyl-2,3′-bipyridin-6′-yl)-1-hydroxyethyl]cyclohexanecarboxylate]",9
18,COc1ccc(C(=O)N2CCC(Nc3ccc(-c4cc(C)cc(Nc5cc(C(F)(F)F)ccn5)n4)cn3)CC2)cc1 [Example 4-93],5
19,Cc1cc(Nc2cc(C(F)(F)F)ccn2)nc(-c2ccc(NC3CCN(C(=O)Cc4ccccc4C(F)(F)F)CC3)nc2)c1 [Example 4-75],39
20,Cc1cc(Nc2cc(C(F)(F)F)ccn2)nc(-c2ccc(NC3CCN(C(=O)Cc4cn(C)c5ccccc45)CC3)nc2)c1 [Example 4-102],7
21,"CCCCOC(=O)[C@H]1CC[C@H](C(C)(O)c2ccc(-c3cc(C)cc(Nc4cc(C(F)F)ccn4)n3)cn2)CC1 (single isomer, unassigned) [Example 19-4, butyl trans-4-[(1R or 1S)-1-(6-{[4-(difluoromethyl)pyridin-2-yl]amino}-4-methyl-2,3′-bipyridin-6′-yl)-1-hydroxyethyl] cyclohexanecarboxylate]",65
22,Cc1cc(Nc2cc(C(F)(F)F)ccn2)nc(-c2ccc(N3CCC3C(=O)O)nc2)c1 (stereo not drawn) [Example 2-11],3
23,Cc1cc(Nc2cc(C(F)(F)F)ccn2)nc(-c2ccc(N3CCCC(C(=O)N4CCCC(C(=O)O)C4)C3)nc2)c1 (stereo not drawn) [Example 2-27],2
24,Cc1cc(Nc2cc(C(F)(F)F)ccn2)nc(-c2ccnc(F)c2)c1 [Example 1-4],87
